Read-outs that look alike come from different tables or passages of the source. One block for each compound: values may come before it.
Key:
[1] = biological target: T1, human TLR7 (Homo sapiens, UniProt Q9NYK1); experiment: Human TLR7 reporter gene assay (NF-κB induction), HEK-Blue-7 cells; format: cell-based
T1 construct: expressed in transfected cells; host or cells: HEK293 (HEK-Blue-7)
T1 sequence (Q9NYK1 27-1049): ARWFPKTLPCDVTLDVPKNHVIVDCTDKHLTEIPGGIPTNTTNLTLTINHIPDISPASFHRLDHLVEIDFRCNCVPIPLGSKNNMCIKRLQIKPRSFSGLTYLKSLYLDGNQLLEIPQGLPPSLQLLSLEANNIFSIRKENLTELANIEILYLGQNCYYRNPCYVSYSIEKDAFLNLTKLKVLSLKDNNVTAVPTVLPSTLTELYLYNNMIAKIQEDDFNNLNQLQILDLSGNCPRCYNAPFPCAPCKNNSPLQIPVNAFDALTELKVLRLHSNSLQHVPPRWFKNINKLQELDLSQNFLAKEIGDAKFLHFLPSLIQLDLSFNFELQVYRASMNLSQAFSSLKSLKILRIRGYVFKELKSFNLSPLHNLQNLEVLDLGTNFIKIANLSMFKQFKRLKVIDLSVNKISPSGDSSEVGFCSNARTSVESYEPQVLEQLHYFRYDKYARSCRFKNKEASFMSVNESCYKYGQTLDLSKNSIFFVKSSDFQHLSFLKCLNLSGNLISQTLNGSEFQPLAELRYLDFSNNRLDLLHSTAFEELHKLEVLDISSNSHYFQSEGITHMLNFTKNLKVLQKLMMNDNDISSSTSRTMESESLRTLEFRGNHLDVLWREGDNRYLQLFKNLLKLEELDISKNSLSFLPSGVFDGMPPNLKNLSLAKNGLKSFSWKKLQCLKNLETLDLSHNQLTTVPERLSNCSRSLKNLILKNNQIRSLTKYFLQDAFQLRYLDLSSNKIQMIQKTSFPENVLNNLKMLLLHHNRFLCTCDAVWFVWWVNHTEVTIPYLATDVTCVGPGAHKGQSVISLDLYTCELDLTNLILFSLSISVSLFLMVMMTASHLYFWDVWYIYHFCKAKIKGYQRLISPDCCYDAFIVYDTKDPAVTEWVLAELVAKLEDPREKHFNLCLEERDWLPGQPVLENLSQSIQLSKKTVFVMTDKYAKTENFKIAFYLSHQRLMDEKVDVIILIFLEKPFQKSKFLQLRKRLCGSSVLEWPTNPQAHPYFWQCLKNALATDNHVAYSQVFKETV
Description: (§1) Human TLR-7/-8 Reporter Gene Assays (NF-κB Induction).
(§2) The induction of NF-κB was quantified using HEK-Blue-7 (hTLR7-specific) and HEK-Blue-8 (hTLR8-specific) cells. HEK293 cells stably co-transfected with human TLR7 or human TLR8, MD2, and secreted alkaline phosphatase (sAP), were maintained in HEK-Blue™ Selection medium containing zeocin and normocin. Stable expression of secreted alkaline phosphatase (sAP) under control of NF-κB/AP-1 promoters is inducible by appropriate TLR agonists, and extracellular sAP in the supernatant is proportional to NF-κB induction.
(§3) HEK293 cells stably co-transfected with the appropriate hTLR (or NOD) and secreted alkaline phosphatase (sAP) were maintained in HEK-Blue™ Selection medium. Stable expression of secreted alkaline phosphatase (sAP) under control of NF-κB/AP-1 promoters is inducible by appropriate TLR/NOD agonists, and extracellular sAP in the supernatant is proportional to NF-κB induction.

[2] = biological target: T2, human TLR8 (Homo sapiens, UniProt Q9NR97); experiment: Human TLR8 reporter gene assay (NF-κB induction), HEK-Blue-8 cells; format: cell-based; details: for EC50 / hTLR8 Agonistic Activity (EC50): human TLR 8-specific reporter gene assays; for EC50: read-out: hTLR8 Agonistic Activity (EC50); for TLR8-agonistic activity EC50: primary screens
T2 construct: expressed in transfected cells; host or cells: HEK293 (HEK-Blue-8)
T2 sequence (Q9NR97 27-1041): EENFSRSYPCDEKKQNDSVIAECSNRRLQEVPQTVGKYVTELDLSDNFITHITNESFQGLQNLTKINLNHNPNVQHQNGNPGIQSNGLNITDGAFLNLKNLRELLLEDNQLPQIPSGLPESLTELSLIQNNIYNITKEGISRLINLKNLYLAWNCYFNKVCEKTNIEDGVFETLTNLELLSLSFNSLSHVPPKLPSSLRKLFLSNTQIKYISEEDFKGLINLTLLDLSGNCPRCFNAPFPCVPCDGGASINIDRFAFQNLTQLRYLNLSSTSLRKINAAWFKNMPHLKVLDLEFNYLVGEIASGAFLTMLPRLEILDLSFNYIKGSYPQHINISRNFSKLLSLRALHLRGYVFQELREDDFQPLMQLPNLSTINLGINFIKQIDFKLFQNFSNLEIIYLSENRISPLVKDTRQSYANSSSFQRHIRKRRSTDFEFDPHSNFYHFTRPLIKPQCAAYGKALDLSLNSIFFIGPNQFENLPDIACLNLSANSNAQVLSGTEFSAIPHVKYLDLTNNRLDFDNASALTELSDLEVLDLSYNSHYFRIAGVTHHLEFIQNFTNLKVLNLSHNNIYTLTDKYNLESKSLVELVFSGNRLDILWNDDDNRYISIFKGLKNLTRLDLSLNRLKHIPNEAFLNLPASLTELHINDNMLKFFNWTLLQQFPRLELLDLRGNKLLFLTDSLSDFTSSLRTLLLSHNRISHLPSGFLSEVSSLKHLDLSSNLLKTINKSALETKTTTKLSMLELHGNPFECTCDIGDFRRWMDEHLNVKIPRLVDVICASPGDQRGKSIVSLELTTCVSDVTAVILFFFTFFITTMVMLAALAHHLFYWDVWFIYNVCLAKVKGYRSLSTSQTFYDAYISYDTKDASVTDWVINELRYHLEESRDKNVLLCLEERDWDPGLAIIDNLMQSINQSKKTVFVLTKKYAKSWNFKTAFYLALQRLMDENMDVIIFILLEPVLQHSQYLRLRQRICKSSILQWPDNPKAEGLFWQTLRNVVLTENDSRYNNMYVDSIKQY
Description: as §1, §2, §3

[3] = primary screen, read-out: TLR7-specific agonistic activity EC50
[4] = human TLR7-specific reporter gene assay, Inactive = no activity up to 500 μg/mL
[5] = human TLR7-specific reporter gene assay, Inactive = no activity up to 500 μg/mL, read-out: hTLR7-agonistic Activity (EC50)

EC50 [1, 3]: 60 nM
Compound: CCCCc1nc2c(N)nc3ccccc3c2n1Cc1ccccc1 [1-benzyl-2-butyl-1H-imidazo[4,5-c]quinolin-4-amine, reference compound]

hTLR7-agonistic Activity (EC50) [1, 4]: Inactive^a
TLR7-specific agonistic activity EC50 ([1]; primary screen): complete abrogation of activity
Compound: CCCCc1nc2c(NC(C)=O)nccc2n1Cc1ccccc1 [Compound 6a, N-(1-Benzyl-2-butyl-1H-imidazo[4,5-c]pyridin-4-yl)acetamide]

hTLR7-agonistic Activity (EC50) [1, 4]: Inactive
TLR7-specific agonistic activity EC50 ([1]; primary screen): complete abrogation of activity
Compound: CCCCc1nc2c(NC(=O)CCC)nccc2n1Cc1ccccc1 [Compound 6b, N-(1-Benzyl-2-butyl-1H-imidazo[4,5-c]pyridin-4-yl) butyramide]

hTLR7-agonistic Activity (EC50) [1, 4]: Inactive
Compound: CCCCNc1nccc2c1nc(CCCC)n2Cc1ccccc1 [Compound 11a, 1-Benzyl-N,2-dibutyl-1H-imidazo[4,5-c]pyridin-4-amine]

hTLR7-agonistic Activity (EC50) [1, 4]: Inactive
Compound: CCCCc1nc2c(NCc3ccccc3)nccc2n1Cc1ccccc1 [Compound 11b, N,1-Dibenzyl-2-butyl-1H-imidazo[4,5-c]pyridin-4-amine]

hTLR7-agonistic Activity (EC50) [1, 4]: Inactive
TLR7-specific agonistic activity EC50 ([1]; primary screen): inactive
Compound: CCCCc1nc2c(N)nc(Cl)cc2n1Cc1ccccc1 [Compound 17, 1-Benzyl-2-butyl-6-chloro-1H-imidazo[4,5-c]pyridin-4-amine]

EC50 [1, 5]: 1250 nM
Compound: CCCCc1nc2c(N)nc(N)cc2n1Cc1ccccc1 [Compound 19a, 1-Benzyl-2-butyl-1H-imidazo[4,5-c]pyridine-4,6-diamine]

EC50 [1, 5]: 340 nM
Compound: CCCCNc1cc2c(nc(CCCC)n2Cc2ccccc2)c(N)n1 [Compound 19b, 1-Benzyl-N^6,2-dibutyl-1H-imidazo[4,5-c]pyridine-4,6-diamine]

EC50 [1, 5]: 760 nM
Compound: CCCCCCCNc1cc2c(nc(CCCC)n2Cc2ccccc2)c(N)n1 [Compound 19c, 1-Benzyl-2-butyl-N^6-heptyl-1H-imidazo[4,5-c]pyridine-4,6-diamine]

EC50 [1, 5]: 1720 nM
Compound: CCCCc1nc2c(N)nc(Nc3ccccc3)cc2n1Cc1ccccc1 [Compound 19e, 1-Benzyl-2-butyl-N^6-phenyl-1H-imidazo[4,5-c]pyridine-4,6-diamine]

TLR7-agonistic potency relative to compound 5 ([1]; fold over compound 5): ~7.6
EC50 [1, 5]: 210 nM
Compound: CCCCc1nc2c(N)nc(NCc3ccccc3)cc2n1Cc1ccccc1 [Compound 19f, N^6,1-Dibenzyl-2-butyl-1H-imidazo[4,5-c]pyridine-4,6-diamine]

EC50 [1, 5]: 610 nM
Compound: CCCCc1nc2c(N)nc(NCc3cccc(OC)c3)cc2n1Cc1ccccc1 [Compound 19h, 1-Benzyl-2-butyl-N^6-(3-methoxybenzyl)-1H-imidazo[4,5-c]pyridine-4,6-diamine]

EC50 [1, 5]: 1040 nM
Compound: CCCCc1nc2c(N)nc(NCc3ccc(C(F)(F)F)cc3)cc2n1Cc1ccccc1 [Compound 19i, 1-Benzyl-2-butyl-N^6-(4-(trifluoromethyl)benzyl)-1H-imidazo[4,5-c]pyridine-4,6-diamine]

EC50 [1, 5]: 640 nM
Compound: CCCCc1nc2c(N)nc(NCc3ccc(Cl)cc3)cc2n1Cc1ccccc1 [Compound 19j, 1-Benzyl-2-butyl-N^6-(4-chlorobenzyl)-1H-imidazo[4,5-c]pyridine-4,6-diamine]

EC50 [1, 5]: 250 nM
Compound: CCCCc1nc2c(N)nc(NCc3ccncc3)cc2n1Cc1ccccc1 [Compound 19l, 1-Benzyl-2-butyl-N^6-(pyridin-4-ylmethyl)-1H-imidazo[4,5-c]pyridine-4,6-diamine]

hTLR7-agonistic Activity (EC50) [1, 4]: Inactive
TLR7-specific agonistic activity EC50 ([1]; primary screen): quiescent
Compound: CCCCc1nc2c(N)nc(NCc3cccc4ccccc34)cc2n1Cc1ccccc1 [Compound 19n, 1-Benzyl-2-butyl-N^6-(naphthalen-1-ylmethyl)-1H-imidazo[4,5-c]pyridine-4,6-diamine]

EC50 [1, 5]: 1090 nM
TLR7-specific agonistic activity EC50 ([1]; primary screen): active
Compound: CCCCc1nc2c(N)nc(NCc3ccc(-c4ccccc4)cc3)cc2n1Cc1ccccc1 [Compound 19o, N^6-([1,1′-Biphenyl]-4-ylmethyl)-1-benzyl-2-butyl-1H-imidazo[4,5-c]pyridine-4,6-diamine]

EC50 [1, 3]: 370 nM
Compound: CCCCc1nc2c(N)nc(NCc3cccc(CN)c3)cc2n1Cc1ccccc1 [Compound 19q, N^6-(3-(aminomethyl)benzyl)-1-benzyl-2-butyl-1H-imidazo[4,5-c]pyridine-4,6-diamine]

EC50 [1, 5]: 1080 nM
Compound: CCCCc1nc2c(N)nc(NCc3ccc(CNc4cc5c(nc(CCCC)n5Cc5ccccc5)c(N)n4)cc3)cc2n1Cc1ccccc1 [Compound 19r, N^6,N^6′-(1,4-phenylenebis(methylene))bis(1-benzyl-2-butyl-1H-imidazo[4,5-c]pyridine-4,6-diamine)]

hTLR7-agonistic Activity (EC50) [1, 4]: Inactive
Compound: CCCCc1nc2c(N)nc(NCc3cccc(CNc4cc5c(nc(CCCC)n5Cc5ccccc5)c(N)n4)c3)cc2n1Cc1ccccc1 [Compound 19s, N^6,N^6′-(1,3-phenylenebis(methylene))bis(1-benzyl-2-butyl-1H-imidazo[4,5-c]pyridine-4,6-diamine)]

EC50 [1, 5]: 280 nM
Compound: CCCCc1cc2c(nc(CCCC)n2Cc2ccccc2)c(N)n1 [Compound 23a, 1-Benzyl-2,6-dibutyl-1H-imidazo[4,5-c]pyridin-4-amine]

hTLR7-agonistic Activity (EC50) [1, 4]: Inactive
Compound: CCCCc1nc2c(N)nc(-c3ccccc3)cc2n1Cc1ccccc1 [Compound 23b, 1-Benzyl-2-butyl-6-phenyl-1H-imidazo[4,5-c]pyridin-4-amine]

EC50 [2]: 7120 nM
Compound: CCCCCn1c(N)nc2c(N(C)C)cccc21 [Compound A31k, N^4,N^4-demethyl-1-pentyl-1H-benzo[d]imidazole-2,4-diamine]

hTLR8 Agonistic Activity (EC50) [2]: Inactive
TLR8-agonistic activity EC50 [2]: abrogated activity
Compound: CCCCCn1c(N)nc2c(-c3ccccc3)cccc21 [Compound A31l, 1-pentyl-4-phenyl-1H-benzo[d]imidazol-2-amine]

hTLR8 Agonistic Activity (EC50) [2]: Inactive
TLR8-agonistic activity EC50 [2]: abrogated activity
Compound: CCCCCn1c(N)nc2c(Cc3ccccc3)cccc21 [Compound A31m, 4-benzyl-1-pentyl-1H-benzo[d]imidazol-2-amine]

hTLR8 Agonistic Activity (EC50) [2]: Inactive
TLR8-agonistic activity EC50 [2]: abrogated activity
Compound: CCCCCn1c(N)nc2c(OCc3ccccc3)cccc21 [Compound A35, 4-Benzyloxy-1-pentyl-1H-benzoimidazol-2-ylamine]

EC50 [2]: 5010 nM
Compound: CCCCCn1c(N)nc2c(O)cccc21 [Compound A36, 2-Amino-1-pentyl-1H-benzoimidazol-4-ol]

hTLR8 Agonistic Activity (EC50) [2]: Inactive
TLR8-agonistic activity EC50 [2]: inactive
Compound: CCCCCn1c(N)nc2c([N+](=O)[O-])cccc21 [Compound A39, 4-Nitro-1-pentyl-1H-benzoimidazol-2-ylamine]

EC50 [2]: 6600 nM
Compound: CCCCCn1c(N)nc2c(N)cccc21 [Compound A40, 1-Pentyl-1H-benzoimidazole-2,4-diamine]
